Experimental data: PubChem BioAssay (NCI)
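Five compound concentrations were applied to cells in 96-well plates for 48 hours; endpoints were derived by simple linear interpolation of the resulting dose-response curve. TGI denotes the concentration required for complete inhibition of growth.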

How the values were obtained:
Assay in all cases: NCI anticancer screen, dose series, 48 h
[1] = test system: T-47D breast
[2] = test system: KM12 colon
[3] = test system: NCI-H226 lung
[4] = test system: UO-31 renal
[5] = test system: ACHN renal
[6] = test system: 786-0 renal
[7] = test system: A549 NSCLC
[8] = test system: MALME-3M melanoma
[9] = test system: RPMI-8226 leukemia
[10] = test system: TK-10 renal
[11] = test system: UACC-257 melanoma
[12] = test system: CAKI-1 renal
[13] = test system: OVCAR-5 ovarian

| SMILES | TGI [1] | TGI [2] | TGI [3] | TGI [4] | TGI [5] | TGI [6] | TGI [7] | TGI [8] | TGI [9] | TGI [10] | TGI [11] | TGI [12] | TGI [13] |
| --- | --- | --- | --- | --- | --- | --- | --- | --- | --- | --- | --- | --- | --- |
| CN(C)Cc1cc(N=Nc2c(Cl)cccc2Cl)ccc1O | > 100 µM | > 100 µM | > 100 µM | > 100 µM | > 100 µM | > 100 µM | > 100 µM | > 100 µM | > 100 µM | > 100 µM | > 100 µM | > 100 µM |  |
| CC(C)(C)c1cc(C(C)(C)C)c(P=C(Cl)Cl)c(C(C)(C)C)c1 (stereo not given) | > 100 µM | > 100 µM | > 100 µM | > 100 µM | > 100 µM | > 100 µM | > 100 µM | > 100 µM | > 100 µM | > 100 µM | > 100 µM | > 100 µM | > 100 µM |
| COc1ccccc1/[N+]([O-])=C/c1ccccc1OC(=S)S | > 100 µM | > 100 µM | > 100 µM | > 100 µM | > 100 µM | 85.9 µM | > 100 µM | > 100 µM | 63.7 µM | > 100 µM | > 100 µM | > 100 µM | > 100 µM |
| CCOC(=O)NC(OCCN(C)C)(C(F)(F)F)C(F)(F)F | > 100 µM | > 100 µM | > 100 µM | > 100 µM | > 100 µM | > 100 µM | > 100 µM | > 100 µM | > 100 µM | > 100 µM | > 100 µM | > 100 µM | > 100 µM |
| CCC(C)C1=C(O)[N+]2([O-])Oc3ccc(-c4c(O)c(O)c(-c5ccc(O)cc5)c(OC(C)=O)c4OC(C)=O)cc3OC2(C(C)CC)C(=O)N1O (stereo not given) | > 50 µM | > 50 µM | > 50 µM | > 50 µM | > 50 µM | > 50 µM | > 50 µM | > 50 µM | > 50 µM | > 50 µM | > 50 µM | > 50 µM | > 50 µM |
| N#Cc1c(-c2cccc(Br)c2)cc(-c2ccc(Cl)cc2)nc1N | > 100 µM | 60.4 µM | 38.1 µM | 48.7 µM | 51.8 µM | 42.4 µM | 57 µM | 70.9 µM | 45.7 µM | 45.2 µM | 38.2 µM | 79.1 µM | 65.2 µM |
| O=S(=O)(O)c1cccc2ccc(O)c(N=Nc3ccc(S(=O)(=O)c4ccc(N=Nc5c(O)ccc6cccc(S(=O)(=O)O)c56)cc4)cc3)c12 | > 100 µM | > 100 µM | > 100 µM | > 100 µM | > 100 µM | > 100 µM | > 100 µM | > 100 µM | > 100 µM | > 100 µM | > 100 µM | > 100 µM | > 100 µM |
| COc1ccc(-c2cc(-c3ccccc3)c3c(n2)-c2ccccc2NC(=O)C3)cc1 | > 100 µM | > 100 µM | > 100 µM | > 100 µM | > 100 µM | > 100 µM | > 100 µM | 94.1 µM | > 100 µM | > 100 µM | > 100 µM | > 100 µM | > 100 µM |
| COc1ccc(/C=C/C(=N/NC(=O)N/N=C(/C=C/c2ccc(OC)cc2)C(C)C)C(C)C)cc1 | > 100 µM | > 100 µM | > 100 µM | > 100 µM | > 100 µM | > 100 µM | > 100 µM | > 100 µM | > 100 µM | > 100 µM | > 100 µM | > 100 µM | > 100 µM |
| N#CCN(Cc1ccccc1)[C@H]1CCC[C@]1(O)/C=C/c1ccc2c(c1)OCO2 | 46.4 µM | 45.3 µM | 44.4 µM | > 100 µM | > 100 µM | 31.4 µM | > 100 µM | 32.1 µM | 46 µM | > 100 µM | 58 µM | > 100 µM | > 100 µM |
| CC(C)C(=O)CC(Sc1ccc(N)cc1)c1ccccc1 (stereo not given) | 71.6 µM | > 100 µM | > 100 µM | > 100 µM | 58.3 µM | > 100 µM | > 100 µM | > 100 µM | 63.1 µM | > 100 µM | > 100 µM | > 100 µM | > 100 µM |
| Nc1c(O)c2c(c(O)c1Cl)C(=O)C=CC2=O | 21.5 µM | 13.3 µM | 34.3 µM | 24.5 µM | 18.8 µM | 25.5 µM | 5.68 µM | 0.894 µM | 44.8 µM | 37 µM | 3.3 µM | 32.2 µM | 11.4 µM |
| COC(=O)C1=C(O)C(C(=O)OC)[C@]2(O)[C@H](C(=O)OC)[C@H]1C[C@@H](c1ccc(O)cc1)[C@H]2C(=O)OC (stereo not given in full) | > 100 µM | 49.9 µM | > 100 µM | > 100 µM | > 100 µM | > 100 µM | > 100 µM | > 100 µM | > 100 µM | 86.4 µM | > 100 µM | > 100 µM | 97.1 µM |
| COc1ccc(C[C@H]2NC[C@H](OC(C)=O)[C@H]2OC(C)=O)cc1 | 0.7 µM | 1.46 µM | 1.08 µM | 0.371 µM | 0.853 µM | 1.05 µM | 1.08 µM | 0.561 µM | 1.95 µM | > 35.3 µM | 2.98 µM | 0.544 µM | 0.679 µM |
| COc1cc(/C=C2\N=C(c3ccccc3)N(c3ccc(S(=O)(=O)Nc4nccs4)cc3)C2=O)ccc1O | > 100 µM | > 100 µM | > 100 µM | > 100 µM | > 100 µM | > 100 µM | > 100 µM | > 100 µM | > 100 µM | > 100 µM | > 100 µM | > 100 µM | > 100 µM |
| N/C(=N\Nc1cccc(Cl)c1)c1cccnc1 | > 92.6 µM | > 100 µM | > 100 µM | > 55.7 µM | > 100 µM | > 100 µM | > 100 µM | > 100 µM | > 89.9 µM | > 100 µM | > 81.5 µM | > 100 µM | > 100 µM |
| COP(=N[Si](C)(C)C)(OC)OC | > 100 µM | > 100 µM | > 100 µM | > 100 µM | > 100 µM | > 100 µM | > 100 µM | > 100 µM | > 100 µM | > 100 µM | > 100 µM | > 100 µM | > 100 µM |
